Data reported in patent US20030175735A1, “Recombinant adenylcyclase and use thereof for screening molecules with proteolytic activity” (priority 2000, published 2003).

What was measured:
wild-type HIV protease [1] = biological target: wild-type HIV protease (Human immunodeficiency virus type 1 group M subtype B, UniProt P04585); type: cell-based
Method: (§1) The bacteria are cultured in Luria-Bertani (LB) liquid or agar (15 g/l agar) medium. Their ability to ferment sugars is tested on McConkey agar medium containing 1% of maltose (Miller, 1972, Experiments in Molecular Genetics, Cold Spring Harbor Lab. Press, Cold Spring Harbor, N.Y.). The antibiotics are used at the following concentrations: ampicillin: 100 μg/ml and kanamycin: 50 μg/ml. The protease inhibitors, indinavir (Crixivan, Merck) and saquinavir (Invirase, Roche) are dissolved, respectively, in ethanol and in water (final concentration 20 mM) and then diluted in the culture media at the concentrations indicated.
In order to test this system, a recombinant protein according to the invention, ACp5, into which is inserted, between amino acids 224 and 225 of the adenyl cyclase, the p5 cleavage site of the HIV protease, was generated. The plasmid expressing this protein (pKACp5, example 2) was cotransformed into an E. coli cya strain, with a compatible plasmid carrying or not carrying the wild-type HIV protease (pUCVIH or pUC19).

HIV protease mutant V2 [2] = type: cell-based
Method: as §1
The DNA encoding the modified proteases was cloned into the vector of pUC19 (example 2) and the plasmids obtained were cotransformed with pKACp5 into the DHT1 strain. The phenotype of the transformed bacteria is observed on McConkey maltose medium containing or not containing protease inhibitors.

wild-type HIV protease [3] = type: cell-based; conditions: for phenotype in the presence of inhibitor: Cya− in the absence of inhibitor
Method: as §1
A chimeric protein (ACPr) was therefore constructed (example 2), into which is inserted, between amino acids 224 and 225 of the adenyl cyclase, the HIV protease (99 residues) and its two cleavage sequences p5 and p6 (each one 8 amino acids) .

HIV protease mutant B3 [4] = assay: system in cis: phenotype of DHT1 with pKACB3; type: cell-based
Method: as §1
(§2) For this study, the B1, B3, V1 and V2 proteases are inserted between amino acids 224 and 225 of the adenyl cyclase and the chimeric proteins obtained are expressed in the DHT1 strain (plasmids pKACB1, pKACB3, pKACV1 and pKACV2).

HIV protease mutant V2 [5] = assay: system in cis: phenotype of DHT1 with pKACV2; type: cell-based
Method: as §1, §2

HIV protease mutant B1 = conditions: modified protease B1
From the text: (§3) The mutations are described relative to the amino acid sequence (1-99) of the reference virus protease (V: Val; I: Ile; M: Met; T: Thr; L: Leu and P: Pro). The level of resistance of the mutants corresponds to the relative increase (compared to the wild-type protease) in the concentration of inhibitors required to inhibit 50% of the viral replication.

HIV protease mutant B3 [6] = conditions: modified protease B3 (M46I, V77I, V82T)
From the text: as §3

HIV protease mutant V1 = conditions: modified protease V1 (L63P)
From the text: as §3

HIV protease mutant V2 [7] = conditions: modified protease V2 (L10I, L63P, L90M)
From the text: as §3

| SMILES | concentration needed for the bacteria to become Cya+ (wild-type HIV protease [1]) [µM] | concentration needed for the bacteria to become Cya+ (HIV protease mutant V2 [2]) [µM] | concentration up to which the bacteria have a Cya− phenotype (wild-type HIV protease [3]) [µM] | phenotype on medium containing 100 μM indinavir (wild-type HIV protease [3]; pKACPr, system in cis) | phenotype in the presence of inhibitor (wild-type HIV protease [3]; pKACPr, system in cis) | concentration up to which the bacteria have a Cya− phenotype (HIV protease mutant B3 [4]) [µM] | phenotype on medium containing 100 μM indinavir (HIV protease mutant V2 [5]) | Resistance to inhibitor: relative increase (compared to the wild-type protease) in the concentration required to inhibit 50% of the viral replication (HIV protease mutant B1) [X] | Resistance to inhibitor: relative increase (compared to the wild-type protease) in the concentration required to inhibit 50% of the viral replication (HIV protease mutant B3 [6]) [X] | Resistance to inhibitor: relative increase (compared to the wild-type protease) in the concentration required to inhibit 50% of the viral replication (HIV protease mutant V1) [X] | Resistance to inhibitor: relative increase (compared to the wild-type protease) in the concentration required to inhibit 50% of the viral replication (HIV protease mutant V2 [7]) [X] | phenotype on medium containing 20 μM of saquinavir (wild-type HIV protease [3]; pKACPr, system in cis) | phenotype at 10 μM (wild-type HIV protease [3]; pKACPr, system in cis, 10 μM saquinavir) | phenotype at 10 μM (HIV protease mutant B3 [4]; 10 μM saquinavir) | phenotype on medium containing 20 μM of saquinavir (HIV protease mutant V2 [5]) |
| --- | --- | --- | --- | --- | --- | --- | --- | --- | --- | --- | --- | --- | --- | --- | --- |
| CC(C)(C)NC(=O)[C@@H]1CN(Cc2cccnc2)CCN1C[C@@H](O)C[C@@H](Cc1ccccc1)C(=O)N[C@H]1c2ccccc2C[C@H]1O [indinavir] | 50 | 50 | 50 | red colonies | Cya^+ | 100 | Cya^− | 1 | 13 | 1 | 4 |  |  |  |  |
| CC(C)(C)NC(=O)[C@@H]1C[C@@H]2CCCC[C@@H]2CN1C[C@@H](O)[C@H](Cc1ccccc1)NC(=O)[C@H](CC(N)=O)NC(=O)c1ccc2ccccc2n1 [saquinavir] | 10 | 20 |  |  | Cya^+ |  |  | 1 | 3 | 1 | 53 | red colonies | red | Cya^− | Cya^− |
